Molecular target: T1, SIRT1 (Homo sapiens, UniProt Q96EB6)
T1 sequence (Q96EB6 1-747): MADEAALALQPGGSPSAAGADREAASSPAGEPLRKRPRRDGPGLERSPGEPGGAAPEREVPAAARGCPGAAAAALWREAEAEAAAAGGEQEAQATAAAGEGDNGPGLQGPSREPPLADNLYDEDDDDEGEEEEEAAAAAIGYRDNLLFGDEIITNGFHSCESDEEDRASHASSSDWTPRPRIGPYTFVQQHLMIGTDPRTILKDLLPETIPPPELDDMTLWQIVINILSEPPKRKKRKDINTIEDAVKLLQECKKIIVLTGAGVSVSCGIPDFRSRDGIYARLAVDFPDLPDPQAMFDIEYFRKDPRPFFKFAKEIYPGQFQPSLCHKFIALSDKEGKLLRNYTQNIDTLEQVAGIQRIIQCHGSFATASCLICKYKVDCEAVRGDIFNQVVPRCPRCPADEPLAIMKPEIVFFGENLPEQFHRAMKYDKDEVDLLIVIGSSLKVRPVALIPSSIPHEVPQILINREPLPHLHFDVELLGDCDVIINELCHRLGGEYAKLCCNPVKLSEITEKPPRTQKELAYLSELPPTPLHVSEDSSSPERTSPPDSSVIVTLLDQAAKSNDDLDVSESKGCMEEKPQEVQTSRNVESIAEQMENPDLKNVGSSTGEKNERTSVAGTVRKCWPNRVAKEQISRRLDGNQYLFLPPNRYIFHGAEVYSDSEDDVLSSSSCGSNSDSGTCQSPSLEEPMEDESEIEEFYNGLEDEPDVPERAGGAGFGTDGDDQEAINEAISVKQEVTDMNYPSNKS
Test: Mass spectrometry based SIRT1 deacetylation (activation) assay
Format: biochemical
Conditions: 0.5 μM peptide substrate, 120 μM βNAD+, 10 nM SIRT1, 25 min at 25° C.; for Emax: 25 min, read-out: % Fold Act. (percent maximum fold activation)

COCCNc1cc(C(=O)Nc2ccccc2-c2nnc(N3CCN4CCC[C@H]4C3)s2)nc(-c2ccccc2)n1 [Compound 117]
EC1.5: A (EC1.5≦1 uM)
Emax: 150 to 300%

O=C1CN(c2cc(C(=O)Nc3ccccc3-c3nnc(N4CCN5CCC[C@H]5C4)s3)nc(-c3ccccc3)n2)CCN1 [Compound 118]
EC1.5: A (EC1.5≦1 uM)
Emax: 150 to 300%

CN(C)CCNc1cc(C(=O)Nc2ccccc2C(=O)N2CCCC2)nc(-c2ccccc2)n1 [Compound 120, 6-(2-(dimethylamino)ethylamino)-2-phenyl-N-(2-(pyrrolidine-1-carbonyl)phenyl)pyrimidine-4-carboxamide]
EC1.5: C (EC1.5>10 uM)
Emax: ≥ 300%

CN(C)CCNC(=O)c1ccccc1NC(=O)c1cc(NCCN(C)C)nc(-c2ccccc2)n1 [Compound 121, 6-(2-(dimethylamino)ethylamino)-N-(2-(2-(dimethylamino)ethylcarbamoyl)phenyl)-2-phenylpyrimidine-4-carboxamide]
EC1.5: B (EC1.5>1 and ≦10 uM)
Emax: 150 to 300%

COCCNC(=O)c1ccccc1NC(=O)c1cc(NCCN(C)C)nc(-c2ccccc2)n1 [Compound 122, 6-(2-(dimethylamino)ethylamino)-N-(2-(2-methoxyethylcarbamoyl)phenyl)-2-phenylpyrimidine-4-carboxamide]
EC1.5: C (EC1.5>10 uM)
Emax: ≥ 300%

CCCCNC(=O)c1ccccc1NC(=O)c1cc(NCCN(C)C)nc(-c2ccccc2)n1 [Compound 123, N-(2-(butylcarbamoyl)phenyl)-6-(2-(dimethylamino)ethylamino)-2-phenylpyrimidine-4-carboxamide]
EC1.5: C (EC1.5>10 uM)
Emax: < 150%

CCN(CC)C(=O)c1ccccc1NC(=O)c1cc(NCCN(C)C)nc(-c2ccccc2)n1 [Compound 124, N-(2-(diethylcarbamoyl)phenyl)-6-(2-(dimethylamino)ethylamino)-2-phenylpyrimidine-4-carboxamide]
EC1.5: B (EC1.5>1 and ≦10 uM)
Emax: 150 to 300%

CNC(=O)c1ccccc1NC(=O)c1cc(NCCN(C)C)nc(-c2ccccc2)n1 [Compound 125, 6-(2-(dimethylamino)ethylamino)-N-(2-(methylcarbamoyl)phenyl)-2-phenylpyrimidine-4-carboxamide]
EC1.5: B (EC1.5>1 and ≦10 uM)
Emax: ≥ 300%

CCC(=O)c1ccccc1NC(=O)c1cc(NCCN(C)C)nc(-c2ccccc2)n1 [Compound 126]
EC1.5: B (EC1.5>1 and ≦10 uM)
Emax: 150 to 300%

CCCCC(=O)c1ccccc1NC(=O)c1cc(NCCN(C)C)nc(-c2ccccc2)n1 [Compound 127]
EC1.5: B (EC1.5>1 and ≦10 uM)
Emax: 150 to 300%

CN(C)CCNc1cc(C(=O)Nc2ccccc2C(=O)Nc2ccccc2)nc(-c2ccccc2)n1 [Compound 128, 6-(2-(dimethylamino)ethylamino)-2-phenyl-N-(2-(phenylcarbamoyl)phenyl)pyrimidine-4-carboxamide]
EC1.5: B (EC1.5>1 and ≦10 uM)
Emax: 150 to 300%

CN(C)CCNc1cc(C(=O)Nc2ccccc2C(=O)NCCC(=O)O)nc(-c2ccccc2)n1 [Compound 130, 3-(2-(6-(2-(dimethylamino)ethylamino)-2-phenylpyrimidine-4-carboxamido)benzamido)propanoic acid]
EC1.5: B (EC1.5>1 and ≦10 uM)
Emax: 150 to 300%

CN(C)CCNc1cc(C(=O)Nc2ccccc2C(=O)c2ccccc2)nc(-c2ccccc2)n1 [Compound 131]
EC1.5: B (EC1.5>1 and ≦10 uM)
Emax: 150 to 300%

C/C(=N\O)c1ccccc1NC(=O)c1cc(NCCN(C)C)nc(-c2ccccc2)n1 [Compound 132]
EC1.5: B (EC1.5>1 and ≦10 uM)
Emax: 150 to 300%

CC(O)c1ccccc1NC(=O)c1cc(NCCN(C)C)nc(-c2ccccc2)n1 (centres unmarked) [Compound 133]
EC1.5: C (EC1.5>10 uM)
Emax: 150 to 300%

CC(=O)c1ccccc1NC(=O)c1cc(N2CCOCC2)nc(-c2ccccc2)n1 [Compound 134]
EC1.5: A (EC1.5≦1 uM)
Emax: 150 to 300%

CCN(CC)CCNc1cc(C(=O)Nc2ccccc2C(C)=O)nc(-c2ccccc2)n1 [Compound 135]
EC1.5: B (EC1.5>1 and ≦10 uM)
Emax: ≥ 300%

CN(C)CCNc1cc(C(=O)Nc2ccccc2Br)nc(-c2ccccc2)n1 [Compound 136]
EC1.5: B (EC1.5>1 and ≦10 uM)
Emax: 150 to 300%

CC(=O)c1ccccc1NC(=O)c1cc(NC2CCN(C(C)C)CC2)nc(-c2ccccc2)n1 [Compound 137]
EC1.5: A (EC1.5≦1 uM)
Emax: ≥ 300%

CC(=O)c1ccccc1NC(=O)c1cc(N2CCNCC2)nc(-c2ccccc2)n1 [Compound 138]
EC1.5: B (EC1.5>1 and ≦10 uM)
Emax: ≥ 300%

CC(=O)c1ccccc1NC(=O)c1cc(NC2CCNCC2)nc(-c2ccccc2)n1 [Compound 140]
EC1.5: A (EC1.5≦1 uM)
Emax: ≥ 300%

COCCN(CCOC)c1cc(C(=O)Nc2ccccc2C(C)=O)nc(-c2ccccc2)n1 [Compound 141]
EC1.5: A (EC1.5≦1 uM)
Emax: ≥ 300%

CC(C)C(=O)c1ccccc1NC(=O)c1cc(NCCN(C)C)nc(-c2ccccc2)n1 [Compound 142]
EC1.5: B (EC1.5>1 and ≦10 uM)
Emax: 150 to 300%

CC(=O)c1ccccc1NC(=O)c1cc(NC2CCN(C)CC2)nc(-c2ccccc2)n1 [Compound 143]
EC1.5: A (EC1.5≦1 uM)
Emax: ≥ 300%

Cc1ccc(NC(=O)c2ccccc2NC(=O)c2cc(NCCN(C)C)nc(-c3ccccc3)n2)cc1 [Compound 144, 6-(2-(dimethylamino)ethylamino)-2-phenyl-N-(2-(p-tolylcarbamoyl)phenyl)pyrimidine-4-carboxamide]
EC1.5: A (EC1.5≦1 uM)
Emax: 150 to 300%

CN(C)CCNc1cc(C(=O)Nc2ccccc2C(=O)Nc2cccc(Cl)c2)nc(-c2ccccc2)n1 [Compound 145, N-(2-(3-chlorophenylcarbamoyl)phenyl)-6-(2-(dimethylamino)ethylamino)-2-phenylpyrimidine-4-carboxamide]
EC1.5: A (EC1.5≦1 uM)
Emax: ≥ 300%

Cc1cccc(NC(=O)c2ccccc2NC(=O)c2cc(NCCN(C)C)nc(-c3ccccc3)n2)c1 [Compound 146, 6-(2-(dimethylamino)ethylamino)-2-phenyl-N-(2-(m-tolylcarbamoyl)phenyl)pyrimidine-4-carboxamide]
EC1.5: B (EC1.5>1 and ≦10 uM)
Emax: ≥ 300%

CN(C)CCNc1cc(C(=O)Nc2ccccc2C(=O)Nc2cccc(C(N)=O)c2)nc(-c2ccccc2)n1 [Compound 147, N-(2-(3-carbamoylphenylcarbamoyl)phenyl)-6-(2-(dimethylamino)ethylamino)-2-phenylpyrimidine-4-carboxamide]
EC1.5: A (EC1.5≦1 uM)
Emax: ≥ 300%

CSCCNC(=O)c1ccccc1NC(=O)c1cc(NCCN(C)C)nc(-c2ccccc2)n1 [Compound 148, 6-(2-(dimethylamino)ethylamino)-N-(2-(2-(methylthio)ethylcarbamoyl)phenyl)-2-phenylpyrimidine-4-carboxamide]
EC1.5: B (EC1.5>1 and ≦10 uM)
Emax: ≥ 300%

CN(C)CCNc1cc(C(=O)Nc2ccccc2C(=O)NCCS(C)(=O)=O)nc(-c2ccccc2)n1 [Compound 149, 6-(2-(dimethylamino)ethylamino)-N-(2-(2-(methylsulfonyl)ethylcarbamoyl)phenyl)-2-phenylpyrimidine-4-carboxamide]
EC1.5: B (EC1.5>1 and ≦10 uM)
Emax: 150 to 300%

CN(C)CCNc1cc(C(=O)Nc2ccccc2C(=O)Nc2ccccc2C(N)=O)nc(-c2ccccc2)n1 [Compound 150, N-(2-(2-carbamoylphenylcarbamoyl)phenyl)-6-(2-(dimethylamino)ethylamino)-2-phenylpyrimidine-4-carboxamide]
EC1.5: A (EC1.5≦1 uM)
Emax: ≥ 300%

CN(C)CCNc1cc(C(=O)Nc2ccccc2C(=O)N(C)c2ccccc2)nc(-c2ccccc2)n1 [Compound 151, 6-(2-(dimethylamino)ethylamino)-N-(2-(methyl(phenyl)carbamoyl)phenyl)-2-phenylpyrimidine-4-carboxamide]
EC1.5: C (EC1.5>10 uM)
Emax: 150 to 300%

CN(C)CCNc1cc(C(=O)Nc2ccccc2C(=O)NCC[S+](C)[O-])nc(-c2ccccc2)n1 (centres unmarked) [Compound 152, 6-(2-(dimethylamino)ethylamino)-N-(2-(2-(methylsulfinyl)ethylcarbamoyl)phenyl)-2-phenylpyrimidine-4-carboxamide]
EC1.5: B (EC1.5>1 and ≦10 uM)
Emax: 150 to 300%

CN(C)CCNc1cc(C(=O)Nc2ccccc2C(=O)Nc2ccc(Cl)c(Cl)c2)nc(-c2ccccc2)n1 [Compound 153, N-(2-(3,4-dichlorophenylcarbamoyl)phenyl)-6-(2-(dimethylamino)ethylamino)-2-phenylpyrimidine-4-carboxamide]
EC1.5: C (EC1.5>10 uM)
Emax: 150 to 300%

Reference: patent US20110039847A1, “AMIDE DERIVATIVES AS SIRTUIN MODULATORS” (Sirtris Pharmaceuticals, Inc, priority 2007, published 2011)
